Assay results taken from ChEMBL document CHEMBL1156829 (Proc Natl Acad Sci U S A, 2008).

Columns and labels:
[1] = system: Plasmodium falciparum; experiment: NOVARTIS: Inhibition of Plasmodium falciparum W2 (drug-resistant) proliferation in erythrocyte-based infection assay; format: functional, organism-based; settings: Plasmodium falciparum, W2; read-out: EC50
[2] = NOVARTIS: Cytotoxicity against human hepatocellular carcinoma cell line (Huh7); format: toxicity, cell-based, Huh-7; settings: Huh7 cells (hepatocellular carcinoma cell line)
[3] = system: Plasmodium falciparum; experiment: NOVARTIS: Inhibition of Plasmodium falciparum 3D7 (drug-susceptible) proliferation in erythrocyte-based infection assay; format: functional, organism-based; settings: Plasmodium falciparum, 3D7

SMILES	EC50 [1] [nM]	CC50 [2] [nM]	EC50 [3] [nM]
O=C(NCC1(c2ccccc2)CCCC1)C(=O)Nc1nncs1	> 360	> 10000	> 806
COc1ccc(-c2c[n+](Cc3ccc(Cl)c(Cl)c3)c3n2CCC3)cc1	858	49700	537
CC(C)CNC(=O)c1cnc(NCCC2CCCN2C)nc1NCCc1ccccc1 (stereo not drawn)	> 1250	> 10000	699
CCOC(=O)C1CCN(C(=S)Nc2ccc3nsnc3c2)CC1	370	30300	347
COc1ccc(C(OCC(=O)N2CCN(Cc3ccccc3)CC2)c2ccccc2)cn1 (stereo not drawn)	434	> 10000	604
CCCCCCN(C(=O)COc1ccc(Cl)cc1)C(CC)c1nc2ccccc2c(=O)n1-c1cccc(Cl)c1 (stereo not drawn)	1140	> 10000	433
CCN(CC)CCNC(=O)c1cc(-c2ccc(Cl)cc2)cc(-n2cnnn2)c1	< 26.1	> 10000	644
Cc1nn(-c2cc(N3CCOCC3)ccc2[N+](=O)[O-])c(=O)c2ccccc12	> 1250	> 10000	> 995
COc1ccc(N=Nc2nc3ccc(Br)cc3n2C)cc1	199	> 100000	197
O=C(NCCc1ccccc1)c1cnc(NCCCn2ccnc2)nc1NC1CCCC1	1720	> 8690	678
CC(=O)OC1(C)CC(C)C(=O)C(C(O)CC2CC(=O)NC(=O)C2)C1 (stereo not drawn)	58.7	> 5890	74.7
CCCN1CCC(c2nc(N3CCOCC3)ncc2-c2cc(C)no2)CC1	> 1250	> 10000	> 433
Oc1ccc(-c2cncnc2)cc1CNC1CCN(Cc2ccccc2)CC1	671	> 100000	698
COc1ccc(-c2nc(-c3ccncc3)cnc2N)cc1OC	45.7	> 10000	35.8
CC[n+]1c(SC)ccc2cc(OC)ccc21	186	> 100000	92.4
CC(=O)Nc1nc(C)c(-c2csc(Nc3ccc(C)cc3)n2)s1	166	23600	240
COc1ccc(CCN(Cc2ccc(Cl)cc2)S(=O)(=O)c2ccc(S(N)(=O)=O)cc2)cc1OC	> 12500	67300	4720
CCC(C)NC(=O)c1nn(-c2ccc(OC)cc2)c(=O)c2ccccc12 (stereo not drawn)	353	> 100000	798
CCOC(=O)c1cnc2ccc(Cl)cc2c1Nc1ccc(OC)c(OC)c1	4430	> 100000	2670
CCOc1ccc(N2C(N)=NC(N)=NC2(C)C)cc1	> 12500	> 100000	79
Fc1ccc(CSc2ccc3nnc(-c4cccnc4)n3n2)cc1	> 937	> 10000	> 1250
O=C(CSc1ccccc1)NCCCCNc1ccnc2cc(Cl)ccc12	632	> 10000	488

SMILES	EC50 [1] [nM]	CC50 [2] [nM]	EC50 [3] [nM]
CCC(CO)Nc1nccnc1-c1ccccc1Oc1ccccc1 (stereo not drawn)	3560	> 100000	4540
CCOC(=O)c1ccc(N(C(=O)Cc2c[nH]c3ccccc23)C(C(=O)NC2CCCCC2)c2cccnc2)cc1 (stereo not drawn)	295	> 100000	280
Nc1c(C(=O)Nc2ccc(C3=NCCN3)cc2)cccc1C(=O)Nc1ccc(C2=NCCN2)cc1	107	> 10000	259
Cc1ccc(S(=O)(=O)Nn2c(SCC(=O)NCCc3ccc(S(N)(=O)=O)cc3)nc3ccccc3c2=O)cc1	2490	> 100000	> 12500
CC[C@]1(C2OC(C3O[C@](O)(CO)[C@@H](C)C[C@H]3C)C[C@H]2C)CCC([C@@]2(C)CC[C@@]3(C[C@@H](O)[C@H](C)C([C@H](C)[C@H](OC)C(C)C(=O)O)O3)O2)O1 (stereo partly drawn)	< 0.868	1290	2.79
OCc1nc2ccccc2n1Cc1ccccc1F	1450	> 10000	> 1640
CN(C)C(=O)C1C2NC(=S)N(c3ccccc3)C1(C)Oc1ccccc12 (stereo not drawn)	483	> 10000	1750
N#Cc1ccc(-c2cnc(N)c(-c3ccc(C(N)=O)cc3)n2)cc1	99.8	> 100000	60.3
CCC(c1nc2ccccc2c(=O)n1-c1ccccc1OC)N(CCc1ccccc1)C(=O)CCc1ccccc1 (stereo not drawn)	< 0.572	4170	134
COc1ccc(CCNC(=O)c2cc(S(=O)(=O)N3CCC4(CC3)OCCO4)ccc2F)cc1OC	> 1160	> 10000	> 1250
COc1ccc2[nH]c3c(c2c1)CCNC3c1ccc(OC)c(CSc2nnc(-c3ccccc3)o2)c1 (stereo not drawn)	1990	7420	4050
COc1ccc(-n2c(SC(C)C)nc3sc4c(c3c2=O)CCN(C)C4)cc1	1850	> 100000	2210
N=c1c2c(n(Cc3ccc(Cl)cc3)c3c1CCC3)CCC2	125	> 100000	62.7
CCc1ccc(C(=O)Oc2ccccc2-c2nc3cc(C)ccn3c2NC(C)(C)CC(C)(C)C)cc1	< 9.29	> 10000	454
Cc1ccc(N2C3c4ccccc4N(S(=O)(=O)c4ccc(C)cc4)C2c2ccccc2N3S(=O)(=O)c2ccc(C)cc2)cc1	1490	> 10000	720
c1ccc(-c2cc(N3CCc4ccccc4C3)nc(-c3ccccn3)n2)nc1	1110	> 10000	251
O=c1c([N+](=O)[O-])cccn1Cc1ccc(F)cc1Cl	783	> 100000	358
C=CCOc1cccc(C(Nc2cccc(C)n2)c2ccc3cccnc3c2O)c1 (stereo not drawn)	1560	> 69400	5750
O=C(NCCc1ccccc1)c1cnc(NCCCN2CCCC2)nc1Nc1ccccc1	> 1250	> 10000	541
CCCCNC(=O)C(c1cccc(OC)c1)N1C(=O)c2cc(OCCc3cccc(OC)c3)ccc2NC(=O)C1CO (stereo not drawn)	42.9	> 10000	110
C[n+]1ccccc1C=Cc1ccc(Br)cc1	221	95200	352
COc1ccc2nc3cc(Cl)ccc3c(NCCCN(CCCN)CCCCN)c2c1	22.3	> 10000	78.6

SMILES	EC50 [1] [nM]	CC50 [2] [nM]	EC50 [3] [nM]
CCc1ccccc1N=C1c2c(cccc2[N+](=O)[O-])C(=O)C1C(C)=O (stereo not drawn)	15.4	> 100000	11.3
c1ccc(C[n+]2ccc(-c3nc4ccccc4s3)cc2)cc1	1480	> 100000	1850
CSc1cccc(NC(=O)C2C3C=CC4(O3)C2C(=O)N(C2CC2)C4C(=O)NC2CCCCC2)c1 (stereo not drawn)	< 14.5	> 10000	1750
OC(CNCC1CCCO1)Cn1c2ccc(Br)cc2c2cc(Br)ccc21 (stereo not drawn)	99	20300	261
O=C1c2ccccc2C(=O)c2c1ccc1nonc21	88.6	> 10000	121
COc1ccc(C2=C(c3ccc(OC)cc3)C3(c4ccccc4)C(=O)C2(c2ccccc2)C2C(=O)N(c4ccccc4)C(=O)C23)cc1 (stereo not drawn)	> 1130	> 10000	1400
O=C(Nc1ccc(C(F)(F)F)cc1)c1cc(S(=O)(=O)NC2CCCCCC2)ccc1F	3330	17700	4000
CCc1[nH]nc2c1C(Cc1ccccc1)C(C#N)=C(N)O2 (stereo not drawn)	393	> 10000	> 1250
CCC(C)NC(=O)c1cc(NC(=O)/C=C/c2ccc([N+](=O)[O-])cc2)ccc1N1CCN(c2ccccc2OC)CC1 (stereo not drawn)	54.3	5550	> 1250
COc1cccc(C(=O)Oc2ccccc2-c2nc3ccccn3c2NC(C)(C)CC(C)(C)C)c1	33	> 10000	270
O=C(Nc1cccc(-c2nc3ccccc3[nH]2)c1)c1cc(=O)c2ccccc2o1	786	> 100000	397
Cc1ccc2nc(-c3ccc(NC(=O)c4ccc(S(=O)(=O)N5CC(C)CC(C)C5)cc4)cc3)sc2c1 (stereo not drawn)	> 1250	> 10000	1320
CCCC[C@@H](C)[C@@H](O)[C@H]1C(=O)N[C@@H](C(C)C)C(=O)N(C)[C@H](SC)C(=O)N(C)[C@@H](CC(C)C)C(=O)N[C@@H](C(C)C)C(=O)N(C)[C@@H](CC(C)C)C(=O)N[C@@H](C)C(=O)N[C@H](C)C(=O)N(C)[C@@H](CC(C)C)C(=O)N(C)[C@@H](CC(C)C)C(=O)N(C)[C@@H](C(C)C)C(=O)N1C	51.7	5180	32.5
CC(C)(C)CC(C)(C)Nc1c(-c2ccccc2OC(=O)C2CCC2)nc2ccccn12	104	> 10000	729
Cc1c(Cl)cccc1NCC(=O)NN=C1CCCC1	> 948	> 10000	> 1250
CCN(CC)CCCC(C)Nc1ccnc2cc(Cl)ccc12 (stereo not drawn) [CHLOROQUINE]	83.7	12400	2.43
CC(=O)Nc1ccc2nc(C)sc2c1	> 445	> 10000	> 1250
CC1CCC(C(C)(C)Oc2ccc(NC(=O)c3ccccc3)cc2)CC1 (stereo not drawn)	1170	42800	3970
CCC(c1nc2ccccc2c(=O)n1-c1cccc(C)c1)N(Cc1ccccc1)C(=O)Nc1c(C(C)C)cccc1C(C)C (stereo not drawn)	486	> 100000	395
COc1cc(OC)nc(CSc2ccc(NC(=O)CCl)cc2)n1	479	> 10000	518
CCN(CC)CCCNC(=S)N(Cc1cc2ccc(OC)cc2[nH]c1=O)C1CCCCC1	1120	40800	4030
COc1cc(NC(C)CCCN(Cc2ccccc2OC)C(=O)c2cccc(Br)c2)c2ncccc2c1 (stereo not drawn)	563	> 6430	> 948
